Structures are written as SMILES.

Data set [1] in a line: In vivo kinetics of FA incorporation and turnover in brain phospholipids (intravenous radiotracer infusion, kinetic model). Further details: species or system rat. On the procedure:
Twenty-four hours postsurgery, a second catheter (iv catheter 24 gauge/0.75 inch, Angiocath™; Becton Dickinson) was implanted into the tail vein where rats received either vehicle or 10 mg/kg of MEP. […] The radiotracers were infused for 5 min via the tail vein catheter at a rate of 0.223(1 + e^−19.2t) ml/min (t is infusion time in minutes) ([37]) which achieves a steady-state plasma radioactivity within 1 min ([18], [38]). […] During the 5 min infusion, blood samples were collected from the jugular vein at approximately 0, 0.25, 0.5, 0.75, 1.5, 3, 4, and 5 min while the unanesthetized rat was mobile in the infusion box with food and water. […] After 5 min, the rats were rapidly euthanized by head-focused high-energy microwave irradiation (13.5 kW for 1.6 s; Cober Electronics Inc., Stratford, CT). The radiotracer infusions continued until rats were euthanized. The brain was excised and cut sagittally. Both hemispheres were stored at −80°C for radioactive and biochemical analyses. Plasma was isolated from whole blood via microcentrifugation at 6,200 rpm (2,000 g) for 5 min and stored at −80°C.
The model for in vivo kinetics of brain FAs in rats has been previously described ([17], [18], [21], [23], [25], [37], [41]).
Because the infusion is 5 min, contributions of FA from de novo synthesis and esterified plasma FA are negligible ([18], [20], [23], [41]); thus only contributions from plasma unesterified FAs and acyl-CoA pools were considered in the calculation of λpalmitate, DHA, or EPA .

The conditions of data set [2]: cited from earlier work.
The nature of data set [3]: Radioactivity in brain lipid fractions after 5 min intravenous 14C-tracer infusion (TLC, LSC). Format: in vivo, rat. Particulars: 14C-EPA-infused rats. As for the experimental part:
(§1) Twenty-four hours postsurgery, a second catheter (iv catheter 24 gauge/0.75 inch, Angiocath™; Becton Dickinson) was implanted into the tail vein where rats received either vehicle or 10 mg/kg of MEP. Ten minutes post injection of vehicle or MEP, the tail vein catheter was connected to a syringe containing radiolabeled ^14C-palmitate (n = 8), ^14C-DHA (n = 6), or ^14C-EPA (n = 7) attached to a computer-controlled variable speed pump (PHD 22/2000; Harvard Apparatus, Holliston, MA). […] Each rat received a dose of 76 μCi ^14C-palmitate, 76 μCi ^14C-DHA, or 78 μCi ^14C-EPA. […] The radiotracer infusions continued until rats were euthanized. The brain was excised and cut sagittally. Both hemispheres were stored at −80°C for radioactive and biochemical analyses. Plasma was isolated from whole blood via microcentrifugation at 6,200 rpm (2,000 g) for 5 min and stored at −80°C. Total lipids from one brain hemisphere and from plasma were extracted by the method of Folch, Lees, and Sloane Stanley ([39]). Isolation of various neutral lipid and phospholipid classes from the total lipid extract was previously described by Chen, Liu, and Bazinet ([6]). FA methyl esters and radioactive acyl-CoA analysis were previously described by Chen, Liu, and Bazinet ([6]).

Data set [4] can be described thus: Identification of radiolabeled FAs in brain phospholipids by HPLC and LSC after 14C-EPA infusion.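 As to radiolabeled FA composition: percent of radiolabeled FAs within each phospholipid class.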 Format: in vivo, rat. Particulars: for percent of total radiolabeled FAs: brain total phospholipids. As for the experimental part:
as §1

Data set [5] concerns mitochondrial FA β-oxidation. The experiment in a line: Radioactivity in brain aqueous fraction (marker of β-oxidation) after 5 min intravenous 14C-tracer infusion. Format: in vivo, rat. The settings on record: vehicle injection; 5 min iv infusion of tracer. As for the experimental part:
as §1, with “([6]).” for “([6]). FA methyl esters and radioactive acyl-CoA analysis were previously described by Chen, Liu, and Bazinet ([6]).”

For the molecule `CC/C=C\C/C=C\C/C=C\C/C=C\C/C=C\CCCCCC(=O)O` [EPA→n-3 DPA], the “FFA rate of turnover” value was found to be 178 ± 41 %/day in data set [1] (ChoGpl, MEP); 192 ± 25 %/day in data set [1] (ChoGpl, Vehicle); 153 ± 44 %/day in data set [1] (EtnGpl, MEP); 147 ± 30 %/day in data set [1] (EtnGpl, Vehicle); 260 ± 113 %/day in data set [1] (PtdIns, MEP); 336 ± 62 %/day in data set [1] (PtdIns, Vehicle). Besides, the “FFA rate of turnover” value in data set [1] (PtdSer, MEP) came out at 20 ± 3.6 %/day; in data set [1] (PtdSer, Vehicle), 31 ± 11 %/day; in data set [1] (Total PL, MEP), 149 ± 35 %/day; in data set [1] (Total PL, Vehicle), 123 ± 34 %/day. Besides, the “JFA net incorporation rate from brain acyl-CoA” value (“JFA net incorporation rate” for short) amounted to 6.2 ± 0.91 nmol/g/day in data set [1] (ChoGpl, MEP); 6.5 ± 0.92 nmol/g/day in data set [1] (ChoGpl, Vehicle); 13 ± 3.5 nmol/g/day in data set [1] (EtnGpl, MEP); 12 ± 2.5 nmol/g/day in data set [1] (EtnGpl, Vehicle); 1.6 ± 0.77 nmol/g/day in data set [1] (PtdIns, MEP); 2.3 ± 0.1 nmol/g/day in data set [1] (PtdIns, Vehicle). Also, the “JFA net incorporation rate” value in data set [1] (PtdSer, MEP) worked out at 1.1 ± 0.11 nmol/g/day; in data set [1] (PtdSer, Vehicle), 1.8 ± 0.45 nmol/g/day; in data set [1] (Total PL, MEP), 21 ± 3.3 nmol/g/day; in data set [1] (Total PL, Vehicle) it was 18 ± 2.2 nmol/g/day. Also, the “Jin net incorporation rate from plasma unesterified FA” value (“Jin net incorporation rate” for short) is 1.4 ± 0.12 nmol/g/day in data set [1] (ChoGpl, MEP); 0.79 ± 0.15 nmol/g/day in data set [1] (ChoGpl, Vehicle); 3.0 ± 0.43 nmol/g/day in data set [1] (EtnGpl, MEP); 1.5 ± 0.36 nmol/g/day in data set [1] (EtnGpl, Vehicle); 0.39 ± 0.22 nmol/g/day in data set [1] (PtdIns, MEP); 0.27 ± 0.045 nmol/g/day in data set [1] (PtdIns, Vehicle). Further, the “Jin net incorporation rate” value in data set [1] (PtdSer, MEP) turned out to be 0.25 ± 0.05 nmol/g/day; in data set [1] (PtdSer, Vehicle) it was 0.21 ± 0.068 nmol/g/day; in data set [1] (Total PL, MEP), 5.0 ± 0.49 nmol/g/day; in data set [1] (Total PL, Vehicle) it was 2.2 ± 0.44 nmol/g/day.

In the case of `CCCCC/C=C\C/C=C\C/C=C\C/C=C\CCCC(=O)O` [ARA, arachidonic acid], the “rate of loss from brain phospholipids” value in data set [2] is listed as 2 % per day.

`CC/C=C\C/C=C\C/C=C\C/C=C\C/C=C\CCCCCC(=O)O` [n-3 DPA, n-3 docosapentaenoic acid]: the “esterification of radiolabeled FA into brain total phospholipids” value in data set [3] (MEP) is reported as 8.3 ± 0.2 nCi/g brain; in data set [3] (vehicle), 4.1 ± 0.2 nCi/g brain. The “radiolabeled FA composition” value in data set [4] (ChoGpl, MEP-treated rats) amounted to 26%; in data set [4] (ChoGpl, vehicle-treated rats) it was 18%; in data set [4] (EtnGpl, MEP-treated rats), 61%; in data set [4] (EtnGpl, vehicle-treated rats), 47%. Moreover, the “percent of total radiolabeled FAs” value is recorded as 38% in data set [4] (MEP-treated rats) and 24% in data set [4] (vehicle-treated rats).

For the molecule `CC/C=C\C/C=C\C/C=C\C/C=C\C/C=C\C/C=C\CCC(=O)SCCNC(=O)CCNC(=O)[C@H](O)C(C)(C)COP(=O)(O)OP(=O)(O)OC[C@H]1O[C@@H](n2cnc3c(N)ncnc32)[C@H](O)[C@@H]1OP(=O)(O)O` [DHA-CoA], in data set [1] (Total PL, Vehicle), the t1/2 half-life entry is recorded as “about 1 day”. Also, in data set [1] (vehicle injection), the “JFA into brain total phospholipids, fold higher than EPA-CoA” value worked out at 154 fold.

In the case of `CCCCCCCCCCCCCCCC(=O)O` [Palmitate, [1-14C]palmitate], the “FFA rate of turnover” value was 53 ± 13 %/day in data set [1] (ChoGpl, MEP); 84 ± 33 %/day in data set [1] (ChoGpl, Vehicle); 110 ± 37 %/day in data set [1] (EtnGpl, MEP); 161 ± 66 %/day in data set [1] (EtnGpl, Vehicle); 311 ± 135 %/day in data set [1] (PtdIns, MEP); 292 ± 80 %/day in data set [1] (PtdIns, Vehicle). The “FFA rate of turnover” value in data set [1] (PtdSer, MEP) is reported as 261 ± 194 %/day; in data set [1] (PtdSer, Vehicle) it was 356 ± 259 %/day; in data set [1] (Total PL, MEP), 80 ± 30 %/day; in data set [1] (Total PL, Vehicle), 127 ± 57 %/day. Further, the “JFA net incorporation rate” value was 12,720 ± 3,120 nmol/g/day in data set [1] (ChoGpl, MEP); 20,713 ± 9,692 nmol/g/day in data set [1] (ChoGpl, Vehicle); 3,062 ± 1,011 nmol/g/day in data set [1] (EtnGpl, MEP); 4,926 ± 2,623 nmol/g/day in data set [1] (EtnGpl, Vehicle); 2,443 ± 1,153 nmol/g/day in data set [1] (PtdIns, MEP); 2,679 ± 1,655 nmol/g/day in data set [1] (PtdIns, Vehicle). Besides, the “JFA net incorporation rate” value is reported as 849 ± 562 nmol/g/day in data set [1] (PtdSer, MEP); 1,253 ± 792 nmol/g/day in data set [1] (PtdSer, Vehicle); 19,285 ± 6,630 nmol/g/day in data set [1] (Total PL, MEP); 32,728 ± 17,692 nmol/g/day in data set [1] (Total PL, Vehicle). Besides, the Jin into diacylglycerol worked out at 238 ± 34 nmol/g/day in data set [1] (MEP) and 106 ± 19 nmol/g/day in data set [1] (vehicle). The Jin into triacylglycerol in data set [1] (MEP) worked out at 276 ± 19 nmol/g/day; in data set [1] (vehicle) it was 140 ± 23 nmol/g/day. The “Jout net rate of loss from brain phospholipids” value in data set [2] is 469 nmol/g/day. Also, the “rate of loss from brain phospholipids” value in data set [2] was 2 % per day. In data set [5], the “radioactivity of brain aqueous fraction” value turned out to be 17 nCi/g brain. Moreover, the “radiolabeled FA composition” value is 3% in data set [4] (ChoGpl, MEP-treated rats) and 6% in data set [4] (ChoGpl, vehicle-treated rats). Moreover, the “percent of total radiolabeled FAs” value is 2% in data set [4] (MEP-treated rats) and 4% in data set [4] (vehicle-treated rats).

On to `CC/C=C\C/C=C\C/C=C\C/C=C\C/C=C\C/C=C\CCC(=O)O` [EPA→DHA], for which the “FFA rate of turnover” value worked out at 0.070 ± 0.01 %/day in data set [1] (ChoGpl, MEP); 0.30 ± 0.035 %/day in data set [1] (ChoGpl, Vehicle); 0.054 ± 0.017 %/day in data set [1] (EtnGpl, MEP); 0.13 ± 0.023 %/day in data set [1] (EtnGpl, Vehicle); 0.022 ± 0.0035 %/day in data set [1] (Total PL, MEP); 0.091 ± 0.0089 %/day in data set [1] (Total PL, Vehicle). In addition, the “JFA net incorporation rate” value is 0.98 ± 0.14 nmol/g/day in data set [1] (ChoGpl, MEP); 3.8 ± 0.54 nmol/g/day in data set [1] (ChoGpl, Vehicle); 3.1 ± 0.81 nmol/g/day in data set [1] (EtnGpl, MEP); 7.6 ± 1.5 nmol/g/day in data set [1] (EtnGpl, Vehicle); 1.9 ± 0.3 nmol/g/day in data set [1] (Total PL, MEP); 7.9 ± 0.97 nmol/g/day in data set [1] (Total PL, Vehicle). Moreover, the “Jin net incorporation rate” value in data set [1] (ChoGpl, MEP) is 0.23 ± 0.02 nmol/g/day; in data set [1] (ChoGpl, Vehicle), 0.46 ± 0.089 nmol/g/day; in data set [1] (EtnGpl, MEP), 0.71 ± 0.1 nmol/g/day; in data set [1] (EtnGpl, Vehicle) it was 0.92 ± 0.22 nmol/g/day; in data set [1] (Total PL, MEP), 0.45 ± 0.044 nmol/g/day; in data set [1] (Total PL, Vehicle) it was 1.0 ± 0.19 nmol/g/day.

The values are drawn from PMC3735939, “The low levels of eicosapentaenoic acid in rat brain phospholipids are maintained via multiple redundant mechanisms” (Journal of Lipid Research, 2013).
